In PubChem BioAssay AID977607 (Broad Institute, 2014):
Calls of active or inactive are those of the source.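 The calls were made as follows: active = curve reaches 40% activation over neutral controls at an AC40 no higher than the top valid tested concentration; inconclusive = no clear call, values can overlap the other calls; inactive = signal moving opposite to the expected increase, and the rest.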

test system: INS-1E GLuc insulin secretion reporter, luminescence, 2-3 h; test: GLuc-reported insulin release enhancers, glucose-stimulated beta cells – cell-based, INS-1E, Gaussia luciferase, luminescence, cherry-pick, set 2, dose response (AID 977607)

Row | SMILES | AC40
1 | COc1cc2c(cc1OC)-c1cc(N3CCc4ccccc43)nc(=O)n1CC2 | 15.6 µM
2 | CN(C)CCNC(=O)c1cc2c(s1)-c1ccc(Cl)cc1SC2 | 6.54 µM
3 | Cc1nnn(-c2nonc2N)c1C(=O)N/N=C/c1cccc2ccccc12 | 7.29 µM
4 | Cc1cc(C)cc(NC(=O)Cc2ccc(-n3cccc3)cc2)c1 | 8.29 µM
5 | CCCNC(=O)c1nnsc1S(=O)(=O)c1ccc(Cl)cc1 | 1.63 µM
6 | N#Cc1cccc(-c2ccc([C@@H]3[C@@H]4CN(S(=O)(=O)c5ccc(-c6ccccc6)cc5)C[C@H]3N4)cc2)c1 | 3.49 µM
7 | CCOC(=O)c1ccccc1NC(=O)c1n[nH]c(=O)c2ccccc12 | 5.47 µM
8 | Fc1ccccc1-c1ccc(C2[C@@H]3CN(Cc4ccccc4)C[C@H]2N3)cc1 (stereo partly drawn) | 7.05 µM
9 | CNc1ccc2ncc(-c3ccc(OC)c(OC)c3)n2n1 | 7.77 µM
10 | CCOC(=O)c1nc(SC)n(C)c1C(=O)OCC | 4.49 µM
11 | CC(C)Cn1c(=O)n(C)c(=O)c2[nH]cnc21 | 9.51 µM
12 | CC(C)(C)c1ccccc1OCC(O)CN1CCN(c2ccccn2)CC1 (stereo not drawn) | 13.7 µM
13 | CCN1CCN(Cc2ccc(NC(=O)c3cccc(-c4ccc5nc(NC(=O)C6CC6)sc5n4)c3)cc2C(F)(F)F)CC1 | 11.4 µM
14 | CCOC(=O)c1[nH]c2cc(OC)c(OC)cc2c1NC(=O)c1ccc2c(c1)OCO2 | 18.1 µM
15 | Cc1ccccc1Cn1ccc(NC(=O)c2cc3nc(-c4ccco4)cc(C(F)(F)F)n3n2)n1 | 4.72 µM
16 | CCCCCCCOC(=O)c1nc(Cl)c(Cl)c(N)c1Cl | 14.5 µM
17 | COc1cc(CN2C[C@@H]3N[C@H](C2)C3c2ccc(/C=C/c3ccccc3)cc2)cc(OC)c1 (stereo partly drawn) | 5.5 µM
18 | COC(=O)c1ccc(OC)c(OC2CCCC2)c1 | 0.254 µM
19 | Cc1cc(NC(=O)c2cc(-c3cccc(Cl)c3)on2)no1 | 5.68 µM
20 | O=c1c2ccccc2nc(-c2ccco2)n1/N=C/c1ccccc1O | 14.7 µM
21 | COc1ccc(Br)cc1C(=O)Nc1cccc(C)c1 | 11.6 µM
22 | CCCn1c2ccccc2c2cn[nH]c(=O)c21 | 16.4 µM
23 | O=C(Nc1ccc(C(F)(F)F)cc1)N1C[C@@H]2N[C@H](C1)C2c1ccc(-c2ccccc2)cc1 (stereo partly drawn) | 10.2 µM
24 | CCOc1ncccc1C(=O)Nc1ncc(C)s1 | > 35 µM (inactive)
25 | COc1ccc(CNCC(O)COc2ccc(C(C)(C)c3ccccc3)cc2)cc1 (stereo not drawn) | 6.55 µM
26 | CCS(=O)(=O)Nc1ccc(-c2cc(-c3ccccc3)c3cc(C)ccc3n2)cc1 | 6.45 µM
27 | O=C(NCC1OCCc2ccccc21)c1ccc(NC(=O)c2cccc(Br)c2)cc1 (stereo not drawn) | 14 µM

Row | SMILES | AC40
28 | Cc1ccccc1-c1ccc(C2[C@@H]3CN(S(=O)(=O)c4ccccc4C)C[C@H]2N3)cc1 (stereo partly drawn) | 9.88 µM
29 | Cc1nn(-c2ccccc2)c2c1C(O)CC(C)(C)C2 (stereo not drawn) | 3.51 µM
30 | Cc1cccc(S(=O)(=O)N2C[C@@H]3N[C@H](C2)C3c2ccc(-c3ccccc3F)cc2)c1 (stereo partly drawn) | 5.72 µM
31 | CCn1nc(C(=O)Nc2ccc3nc(C)sc3c2)c2ccccc2c1=O | 25.1 µM
32 | Cc1ccc(-n2ncc3c(=O)n(CC(=O)Nc4cccc(Cl)c4)cnc32)cc1C | 6.37 µM
33 | O=C(Nc1ccc(Cl)c(Cl)c1)Nc1nc(-c2ccccc2)cs1 | 4.71 µM
34 | COc1cc2sc3ccc(C#Cc4ccc(N)cc4)cc3c(=O)c2cc1OC | 33.4 µM
35 | COc1ccc(C2=Nn3c(nnc3-c3ccccc3F)SC2)cc1OCC1CC1 | 1.23 µM
36 | C/C(Cl)=C/CSc1nc2c(c(=O)[nH]c(=O)n2C)n1C(C)C | 20 µM
37 | Cc1cccc(-c2ccc(C3[C@@H]4CN(C(=O)C5CCCCC5)C[C@H]3N4)cc2)c1 (stereo partly drawn) | 18.5 µM
38 | CCOc1ncccc1C(=O)Nc1ccc(S(=O)(=O)Nc2nccs2)cc1 | 3.21 µM
39 | COc1cc(/C=N/NC(=O)Nc2ccccc2)ccc1OCCOc1ccccc1C | 2.29 µM
40 | c1ccc(-c2nnc3ccc(N4CCC5(CC4)OCCO5)nn23)cc1 | > 35 µM (inactive)
41 | COc1ccc(OC)c(NC(=O)c2cc3c(Cl)nc4ccccc4c3s2)c1 | 10.2 µM
42 | OC(c1ccccc1)(c1ccccc1)C1CCN(CCCOc2ccc(-c3ccsc3)cc2)CC1 | 8.81 µM
43 | CCOC(=O)c1ccc(Nc2ncnc3ccc(C)cc23)cc1 | 12.4 µM
44 | COc1cc2c(cc1OC)-c1cc(Nc3ccccc3Br)nc(=O)n1CC2 | 0.366 µM
45 | CCOc1ccccc1Nc1cc2n(c(=O)n1)CCc1cc(OC)c(OC)cc1-2 | 1.07 µM
46 | COc1ccc(CC(N)c2csc(NC(=O)Nc3ccc(C(C)C)cc3)n2)cc1 (stereo not drawn) | 6.81 µM
47 | O=C(NCC1OCCc2ccccc21)c1ccc(NC(=O)c2ccc(Cl)cc2Cl)cc1 (stereo not drawn) | 20.4 µM
48 | Cc1cc2c(cc1C)CSC(c1c(O)ccc3ccccc13)SC2 | 10.9 µM
49 | CCCCCCN1C[C@H](n2cc(COC(=O)c3ccccc3)nn2)[C@@H](O)C[C@@H]1c1ccc(C)cc1 | 6.42 µM
50 | O=C(Nc1ccc(C(F)(F)F)cc1)N1[C@@H]2CNC[C@H]1C2c1ccc(/C=C/c2ccccc2)cc1 (stereo partly drawn) | 9.53 µM
51 | FC(F)(F)c1cc(CCN2CCNC[C@@H]2Cc2ccccc2)cc(C(F)(F)F)c1 | 17.8 µM
52 | C/C(=N/NC(=O)c1ccc(Br)s1)c1ccncc1 | > 35 µM (inactive)
53 | COc1ccc(NC(=O)c2csc(C)c2)cc1OC | > 35 µM (inactive)
